This is an account of results in patent publication US10774083B2, “Heterocyclic amide compound” (TAKEDA PHARMACEUTICAL COMPANY LIMITED, priority 2016, dated 2020).

The assay has as its system human malignant melanoma cell line SKMEL-2. As to the kind of experiment: antitumor action on mice transplanted with human malignant melanoma cell line SKMEL-2. The settings on record: once per day, 14 days. It is filed as in vivo, mouse. How it is done:
An antitumor action of the compound of the present invention on mice transplanted with human malignant melanoma cell line SKMEL-2 and human fibrosarcoma cell line HT-1080 was evaluated by the following method.
Human malignant melanoma cell line SKMEL-2 was subcutaneously transplanted by injection to 7-week-old BALB/cA Jcl-nu/nu female mice (CLEA Japan, Inc.) at 1.0×10^7 cells (G1). At the time point when the tumor volume reached around 800 mm^3 after transplantation, the cells were subcultured and transplanted into 7-week-old BALB/cA Jcl-nu/nu female mouse (CLEA Japan, Inc.) by using trocar (G2). […] At 13 days from transplantation, the tumor diameter of the engrafted tumor was measured and the tumor volume was calculated by the following formula.
Individuals having a tumor volume of 100 to 300 mm^3 were selected for SKMEL-2, and individuals having a tumor volume of 200 to 400 mm^3 were selected for HT-1080, and 4 or 5 mice per group were used for the experiment. […] The tumor diameter was measured one day before the start of administration and one day after completion of administration and the tumor volume was calculated.
The tumor proliferation rate (T/C (%)) of the test compound administration group in comparison with the control administration group was calculated by the following formula. […]

Consider `Cc1cc(N2CC[C@@](C#N)(C3CC3)C2=O)cc(C(=O)NCc2cc(F)cc(-c3cnn(C)c3)c2)n1` [Example 159, 4-((3S)-3-cyano-3-cyclopropyl-2-oxopyrrolidin-1-yl)-N-(3-fluoro-5-(1-methyl-1H-pyrazol-4-yl)benzyl)-6-methylpyridine-2-carboxamide], for which the “T/C (%) tumor proliferation rate” value is, setting by setting: (SKMEL-2, 5 mg/kg orally) 64%; (SKMEL-2, 10 mg/kg orally) 7.7%.
